One test deals with HMC3 microglial cells. In words: ELISA of cytokines in cell culture supernatants of IL-1β-stimulated HMC3 cells. The test is classed as cell-based, Human. Particulars: metaxalone 10, 20, 40 μg/mL, dose-dependent, p<0.0001 vs. IL-1β. As for the experimental part: Human microglial HMC3 cell line (CRL-3304) was obtained from ATCC (American Type Culture Collection; Manassas, VA, USA). Cells were cultured in Eagle's minimum essential medium (EMEM) with a supplement of 10% fetal bovine serum (FBS) and 1% antibiotic mixture, and were incubated at 37° C. with 5% of CO2. Both medium and supplements were provided by ATCC (Manassas, VA, USA). Cells were seeded in 6-well plates at a density of 4×10^5 cells/well. A stock solution of metaxalone (Sigma Aldrich, Milan, Italy) was prepared by dissolving metaxalone in DMSO. Sixteen hours after plating (time 0), metaxalone was added at the doses of 10, 20, and 40 μg/mL 1 h following IL-1β stimulation (5 ng/mL; Sigma Aldrich, Milan, Italy). After 6 h cells were harvested for mRNA evaluation. In a separate set of plates, cells were incubated for 24 h before MTT assay to evaluate cell viability. The dose-response curve for IL-1β stimulation can be found at Supplemental FIG. S1. Measurements of Cytokines by Enzyme-Linked Immunosorbent Assay (ELISA). Tumor necrosis factor-alpha (TNF-α), interleukin-6 (IL-6) and interleukin-13 (IL-13) were measured in the cell culture supernatants. The products under investigation were measured using enzyme-linked immunosorbent assay (ELISA) kits (Abcam, Cambridge, UK), in agreement with the instructions reported by the manufacturer. All the samples were evaluated in duplicate and the obtained results were interpolated with the pertinent standard curves. To evaluate the sample, the means of the duplicated sample were used and expressed in pg/mL.
Background: An ELISA detects its analyte on a solid surface through an enzyme-linked reagent.

In a further test the test system is HMC3 cells. In words: Malonaldehyde (MDA) assay, lipid peroxidation in HMC3 cells. The test is classed as cell-based, Human. As to conditions: IL-1β-stimulated HMC3 cells; metaxalone 10, 20, 40 μg/mL; p<0.0001 vs. IL-1β. An excerpt: Malonaldehyde Assay. Metaxalone antioxidant effects were examined in HMC3 cells by measuring malonaldehyde (MDA) levels as a marker of lipid peroxidation, as previously described in detail. (See, Ceravolo, I. Et al., Health Potential of Aloe vera against Oxidative Stress Induced Corneal Damage: An “In Vitro” Study. Antioxidants 2021, 10, 318).

The target of another test is T1, MAO-A (Homo sapiens, UniProt P21397).
T1 construct: MAO-A was constitutively expressed in microglia cells; endogenous in cells; host or cells: HMC3 human microglial cells
T1 sequence (P21397 1-527): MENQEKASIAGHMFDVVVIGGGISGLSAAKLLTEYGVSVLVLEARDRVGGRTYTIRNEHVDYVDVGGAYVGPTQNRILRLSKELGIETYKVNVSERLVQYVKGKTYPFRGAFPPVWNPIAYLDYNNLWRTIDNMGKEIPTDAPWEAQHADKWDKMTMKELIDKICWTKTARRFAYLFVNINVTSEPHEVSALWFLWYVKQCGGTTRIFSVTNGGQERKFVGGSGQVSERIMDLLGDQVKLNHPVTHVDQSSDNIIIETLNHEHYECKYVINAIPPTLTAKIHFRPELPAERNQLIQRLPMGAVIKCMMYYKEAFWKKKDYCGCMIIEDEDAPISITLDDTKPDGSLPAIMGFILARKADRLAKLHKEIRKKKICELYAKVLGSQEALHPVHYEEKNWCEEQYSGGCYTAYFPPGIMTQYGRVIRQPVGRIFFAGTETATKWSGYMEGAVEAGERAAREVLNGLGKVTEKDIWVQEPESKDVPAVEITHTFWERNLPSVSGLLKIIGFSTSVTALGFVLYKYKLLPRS
Briefly: MAO-A activity assay (MAO-GLO bioluminescent) in IL-1β-stimulated microglial cells. It is filed as cell-based. As to conditions: chemiluminescence assay, metaxalone 10, 20, 40 μg/mL, dose-dependent, p<0.0001 vs. IL-1β. As for the experimental part: MAO-A Activity Assay. MAO-A activity was evaluated by a two-step bioluminescent assay methodology, as previously described (See, Lin, Y. C. et al., MAO-A novel decision maker of apoptosis and autophagy in hormone refractory neuroendocrine prostate cancer cells. Sci. Rep. 2017, 7, 46338) using a MAO-GLO™ assay kit from Promega (Madison, WI, USA). The produced amount of signal (light intensity) was measured using a microplate luminometer (Multilabel Counter Victor3™, PerkinElmer Life Sciences). Human recombinant MAO-A enzyme was used as a positive control. The results are given as relative light units after the background was subtracted.

For `Cc1cc(C)cc(OCC2CNC(=O)O2)c1` (centres unmarked) [metaxalone, 5-[(3,5-dimethylphenoxy)methyl]-2-oxazolidinone], in the test on HMC3 microglial cells (supernatant of IL-1β-stimulated HMC3 cells (IL-6 increased by IL-1β)), the IL-6 protein levels result was “significantly reverted”. Besides, in the test with HMC3 microglial cells (supernatant of IL-1β-stimulated HMC3 cells (IL-13 decreased by IL-1β)), the IL-13 protein levels result was “significantly reverted”. Also, the TNF-α protein levels entry with HMC3 microglial cells (supernatant of IL-1β-stimulated HMC3 cells (TNF-α increased by IL-1β)) is on record as “significantly reverted”. The MDA levels result with HMC3 cells is recorded as “significant reduction”. In addition, the MAO-A activity result at MAO-A is on record as “suppressed”.

Source of the values: patent US20240197687A1, “METHODS OF TREATING NEUROINFLAMMATION AND INHIBITING MONOAMINE OXIDASE-A AND RESTORING/UPREGULATING/INCREASING IL-13 AND AND PGC-1 BY ADMINISTERING ORAL DOSAGE FORM CONTAINING MICRONIZED AND NONMICRONIZED PARTICULATE METAXALONE, ALGINIC ACID AND PROPYLENE GLYCOL ALGINATE” (Primus Pharmaceuticals, Inc., priority 2022, published 2024).
